Assay results as given in patent US7211417B2, “Antibiotic P175-A and semisynthetic derivatives thereof” (priority 2003, dated 2007).
In brackets after ≈: the same amount, converted by molar mass.

Tested on: Escherichia coli (imp)
Test: MIC by broth dilution, Escherichia coli (imp)
Format: cell-based
Conditions: not given
Method: (§1) The minimal inhibitory concentration (MIC), the lowest concentration of the antibiotic which inhibits growth of the test organism, is determined by the broth dilution method using Muller-Hinton II […] (Baltimore Biological Laboratories) following the recommendations of the National Committee for Clinical Laboratory Standards [Methods for dilution antimicrobial susceptibility tests for bacteria that grow aerobically. Approved standard M7-A2. National Committee for Clinical Laboratory Standards, Villanova, Pa.].
(§2) An inoculum level of 5×10^5 CFU/ml, and a range of antibiotic concentrations (64–0.06 μg/ml) is used. The MIC is determined after the microtiter plates are incubated for 18 hours at 35° C. in an ambient air incubator. The test organisms comprise a spectrum of the Gram-positive bacteria Staphylococcus aureus, Streptococcus pneumoniae, and Enterococcus sp., the Gram-negative bacteria Escherichia coli, and the yeast Candida albicans. These organisms include recent clinical isolates that are resistant to methicillin and vancomycin.

Structure (SMILES)	MIC
COc1c2ccc3c(=O)c4cc(C)n(CC(=O)N5CC(C(=O)O)NC(=O)C5C)c(=O)c4c(=O)c3c2c(O)c2c(=O)c3cccc(O)c3c(=O)c12 (stereo not drawn) [Example 3, P175-A]	8 µg/mL (≈ 11.8 µM)
COC(=O)C1CN(C(=O)Cn2c(C)cc3c(=O)c4ccc5c(OC)c6c(=O)c7c(O)cccc7c(=O)c6c(O)c5c4c(=O)c3c2=O)C(C)C(=O)N1 (stereo not drawn) [Example 4, P175-A methyl ester]	4 µg/mL (≈ 5.77 µM)
CCOC(=O)C1CN(C(=O)Cn2c(C)cc3c(=O)c4ccc5c(OC)c6c(=O)c7c(O)cccc7c(=O)c6c(O)c5c4c(=O)c3c2=O)C(C)C(=O)N1 (stereo not drawn) [Example 5, P175-A ethyl ester]	16 µg/mL (≈ 22.6 µM)

Tested on: Bacillus subtilis
Test: MIC by broth dilution, Bacillus subtilis
Format: cell-based
Conditions: read-out: MIC

Structure (SMILES)	MIC
COc1c2ccc3c(=O)c4cc(C)n(CC(=O)N5CC(C(=O)O)NC(=O)C5C)c(=O)c4c(=O)c3c2c(O)c2c(=O)c3cccc(O)c3c(=O)c12 (stereo not drawn) [Example 3, P175-A]	0.12 µg/mL (≈ 0.177 µM)
COC(=O)C1CN(C(=O)Cn2c(C)cc3c(=O)c4ccc5c(OC)c6c(=O)c7c(O)cccc7c(=O)c6c(O)c5c4c(=O)c3c2=O)C(C)C(=O)N1 (stereo not drawn) [Example 4, P175-A methyl ester]	0.12 µg/mL (≈ 0.173 µM)
CCOC(=O)C1CN(C(=O)Cn2c(C)cc3c(=O)c4ccc5c(OC)c6c(=O)c7c(O)cccc7c(=O)c6c(O)c5c4c(=O)c3c2=O)C(C)C(=O)N1 (stereo not drawn) [Example 5, P175-A ethyl ester]	0.25 µg/mL (≈ 0.353 µM)

Tested on: Staphylococcus aureus
Test: MIC by broth dilution, Staphylococcus aureus
Format: cell-based
Conditions: 3 strains, including a methicillin-resistant strain (MRSA), 18 hours at 35° C., read-out: MIC
Method: as §1, §2

Structure (SMILES)	MIC
COc1c2ccc3c(=O)c4cc(C)n(CC(=O)N5CC(C(=O)O)NC(=O)C5C)c(=O)c4c(=O)c3c2c(O)c2c(=O)c3cccc(O)c3c(=O)c12 (stereo not drawn) [Example 3, P175-A]	0.06 to 0.25 µg/mL (≈ 0.0883 to 0.368 µM)
COC(=O)C1CN(C(=O)Cn2c(C)cc3c(=O)c4ccc5c(OC)c6c(=O)c7c(O)cccc7c(=O)c6c(O)c5c4c(=O)c3c2=O)C(C)C(=O)N1 (stereo not drawn) [Example 4, P175-A methyl ester]	0.06 to 0.12 µg/mL (≈ 0.0865 to 0.173 µM)
CCOC(=O)C1CN(C(=O)Cn2c(C)cc3c(=O)c4ccc5c(OC)c6c(=O)c7c(O)cccc7c(=O)c6c(O)c5c4c(=O)c3c2=O)C(C)C(=O)N1 (stereo not drawn) [Example 5, P175-A ethyl ester]	0.06 to 0.12 µg/mL (≈ 0.0848 to 0.17 µM)

Tested on: Candida albicans
Test: MIC by broth dilution, Candida albicans
Format: cell-based
Conditions: read-out: MIC
Method: as §1, §2

Structure (SMILES)	MIC
COc1c2ccc3c(=O)c4cc(C)n(CC(=O)N5CC(C(=O)O)NC(=O)C5C)c(=O)c4c(=O)c3c2c(O)c2c(=O)c3cccc(O)c3c(=O)c12 (stereo not drawn) [Example 3, P175-A]	> 64 µg/mL
COC(=O)C1CN(C(=O)Cn2c(C)cc3c(=O)c4ccc5c(OC)c6c(=O)c7c(O)cccc7c(=O)c6c(O)c5c4c(=O)c3c2=O)C(C)C(=O)N1 (stereo not drawn) [Example 4, P175-A methyl ester]	> 64 µg/mL
CCOC(=O)C1CN(C(=O)Cn2c(C)cc3c(=O)c4ccc5c(OC)c6c(=O)c7c(O)cccc7c(=O)c6c(O)c5c4c(=O)c3c2=O)C(C)C(=O)N1 (stereo not drawn) [Example 5, P175-A ethyl ester]	> 64 µg/mL

Tested on: Escherichia coli
Test: MIC by broth dilution, Escherichia coli
Format: cell-based
Conditions: read-out: MIC
Method: as §1, §2

Structure (SMILES)	MIC
COc1c2ccc3c(=O)c4cc(C)n(CC(=O)N5CC(C(=O)O)NC(=O)C5C)c(=O)c4c(=O)c3c2c(O)c2c(=O)c3cccc(O)c3c(=O)c12 (stereo not drawn) [Example 3, P175-A]	> 64 µg/mL
COC(=O)C1CN(C(=O)Cn2c(C)cc3c(=O)c4ccc5c(OC)c6c(=O)c7c(O)cccc7c(=O)c6c(O)c5c4c(=O)c3c2=O)C(C)C(=O)N1 (stereo not drawn) [Example 4, P175-A methyl ester]	> 64 µg/mL
CCOC(=O)C1CN(C(=O)Cn2c(C)cc3c(=O)c4ccc5c(OC)c6c(=O)c7c(O)cccc7c(=O)c6c(O)c5c4c(=O)c3c2=O)C(C)C(=O)N1 (stereo not drawn) [Example 5, P175-A ethyl ester]	> 64 µg/mL

Tested on: Enterococcus faecalis
Test: MIC by broth dilution, Enterococcus faecalis
Format: cell-based
Conditions: 2 strains, including a vancomycin-resistant strain (VRE), 18 hours at 35° C., read-out: MIC
Method: as §1, §2

Structure (SMILES)	MIC
COc1c2ccc3c(=O)c4cc(C)n(CC(=O)N5CC(C(=O)O)NC(=O)C5C)c(=O)c4c(=O)c3c2c(O)c2c(=O)c3cccc(O)c3c(=O)c12 (stereo not drawn) [Example 3, P175-A]	< 0.06 µg/mL
COC(=O)C1CN(C(=O)Cn2c(C)cc3c(=O)c4ccc5c(OC)c6c(=O)c7c(O)cccc7c(=O)c6c(O)c5c4c(=O)c3c2=O)C(C)C(=O)N1 (stereo not drawn) [Example 4, P175-A methyl ester]	< 0.06 µg/mL
CCOC(=O)C1CN(C(=O)Cn2c(C)cc3c(=O)c4ccc5c(OC)c6c(=O)c7c(O)cccc7c(=O)c6c(O)c5c4c(=O)c3c2=O)C(C)C(=O)N1 (stereo not drawn) [Example 5, P175-A ethyl ester]	0.25 to 0.5 µg/mL (≈ 0.353 to 0.707 µM)

Tested on: Streptococcus pneumoniae GC 1894
Test: MIC by broth dilution, Streptococcus pneumoniae GC 1894
Format: cell-based
Conditions: Streptococcus pneumoniae, GC1894, Streptococcus pneumoniae GC 1894* (5% LHB); read-out: MIC
Method: as §1, §2

Structure (SMILES)	MIC
COc1c2ccc3c(=O)c4cc(C)n(CC(=O)N5CC(C(=O)O)NC(=O)C5C)c(=O)c4c(=O)c3c2c(O)c2c(=O)c3cccc(O)c3c(=O)c12 (stereo not drawn) [Example 3, P175-A]	16 µg/mL (≈ 23.5 µM)
COC(=O)C1CN(C(=O)Cn2c(C)cc3c(=O)c4ccc5c(OC)c6c(=O)c7c(O)cccc7c(=O)c6c(O)c5c4c(=O)c3c2=O)C(C)C(=O)N1 (stereo not drawn) [Example 4, P175-A methyl ester]	1 µg/mL (≈ 1.44 µM)
CCOC(=O)C1CN(C(=O)Cn2c(C)cc3c(=O)c4ccc5c(OC)c6c(=O)c7c(O)cccc7c(=O)c6c(O)c5c4c(=O)c3c2=O)C(C)C(=O)N1 (stereo not drawn) [Example 5, P175-A ethyl ester]	0.5 µg/mL (≈ 0.707 µM)

Same assay, conditions: Streptococcus pneumoniae, GC1894, Streptococcus pneumoniae GC 1894+ (THY); read-out: MIC

Structure (SMILES)	MIC
COc1c2ccc3c(=O)c4cc(C)n(CC(=O)N5CC(C(=O)O)NC(=O)C5C)c(=O)c4c(=O)c3c2c(O)c2c(=O)c3cccc(O)c3c(=O)c12 (stereo not drawn) [Example 3, P175-A]	8 µg/mL (≈ 11.8 µM)
COC(=O)C1CN(C(=O)Cn2c(C)cc3c(=O)c4ccc5c(OC)c6c(=O)c7c(O)cccc7c(=O)c6c(O)c5c4c(=O)c3c2=O)C(C)C(=O)N1 (stereo not drawn) [Example 4, P175-A methyl ester]	2 µg/mL (≈ 2.88 µM)
CCOC(=O)C1CN(C(=O)Cn2c(C)cc3c(=O)c4ccc5c(OC)c6c(=O)c7c(O)cccc7c(=O)c6c(O)c5c4c(=O)c3c2=O)C(C)C(=O)N1 (stereo not drawn) [Example 5, P175-A ethyl ester]	1 µg/mL (≈ 1.41 µM)
